Among the data in patent publication US12121521B2, “Uses of salt-inducible kinase (SIK) inhibitors for treating osteoporosis” (The General Hospital Corporation, priority 2016, dated 2024) are remaining binding values, retold here.

What all share (experiment): ScanEDGE kinase panel (DiscoverX)
Common to all, as to format: binding
Holding throughout (details): read-out: % of control activity at 71 nM

The target of test [1] is T1, PIM2 (Homo sapiens, UniProt Q9P1W9).
T1 construct: T7 phage fusion (most kinases) or DNA tag for qPCR (kinases made in HEK-293); purchased DiscoverX; host or cells: E. coli BL21-derived host (T7 phage) or HEK-293
The procedure: (§1) ScanEDGE kinase assays paneling specificity across a panel of 96 representative kinases were performed by DiscoverX (Fremont, CA). For most assays, kinase-tagged T7 phage strains were grown in parallel in 24-well blocks in an E. coli host derived from the BL21 strain. Bacteria were grown to log phase and infected with T7 phage from frozen stock (MOI=0.4) and incubated with shaking at 32° C. until lysis (90-150 minutes). The lysates were centrifuged (6000×g) and filtered (0.2 μm) to remove cell debris. The remaining kinases were produced in HEK-293 cells and subsequently tagged with DNA for qPCR detection. […] The liganded beads were blocked with excess biotin and washing with blocking buffer (SeaBlock (Pierce), 1% BSA, 0.05% Tween 20, 1 mM DTT) to remove unbound ligand and to reduce non-specific phage binding. […] Test compounds were prepared as 40× stocks in 100% DMSO and directly diluted into the assay. All reactions were performed in polypropylene 384 well plates in a final volume of 40 μl. […] The kinase concentration in the eluates was measured by qPCR.

Test [2] has as its target T2, ROCK2 (Homo sapiens, UniProt O75116).
T2 construct: T7 phage fusion (most kinases) or DNA tag after HEK-293 expression; purchased DiscoverX (Fremont, CA), ScanEDGE; host or cells: T7 phage in E. coli BL21-derived host, or HEK-293
The procedure: as §1

The target in test [3] is T3, TSSK1B (Homo sapiens, UniProt Q9BXA7).
T3 construct: T7 phage fusion (most kinases) or DNA tag after HEK-293 expression; purchased DiscoverX (Fremont, CA), ScanEDGE; host or cells: T7 phage in E. coli BL21-derived host, or HEK-293
The procedure:
as §1

In test [4] the target is T4, FGFR2 (Homo sapiens, UniProt P21802).
T4 construct: T7 phage fusion (most kinases) or DNA tag for qPCR (HEK-293-made kinases); purchased DiscoverX; host or cells: E. coli BL21-derived host (T7 phage) or HEK-293
The procedure:
as §1

Test [5] addresses T5, FGFR3 (Homo sapiens, UniProt P22607).
T5 construct: T7 phage fusion (most kinases) or DNA tag for qPCR (HEK-293-made kinases); purchased DiscoverX; host or cells: E. coli BL21-derived host (T7 phage) or HEK-293
Here is the method:
as §1

The target in test [6] is T6, RIOK2 (Homo sapiens, UniProt Q9BVS4).
T6 construct: T7 phage fusion (most kinases) or DNA tag after HEK-293 expression; purchased DiscoverX (Fremont, CA), ScanEDGE; host or cells: T7 phage in E. coli BL21-derived host, or HEK-293
The procedure:
as §1

Test [7] deals with T7, VEGFR2 (Homo sapiens, UniProt P35968).
T7 construct: T7 phage fusion (most kinases) or DNA tag after HEK-293 expression; purchased DiscoverX (Fremont, CA), ScanEDGE; host or cells: T7 phage in E. coli BL21-derived host, or HEK-293
The procedure:
as §1

The target of test [8] is T8, MARK1 (Homo sapiens, UniProt Q9P0L2).
T8 construct: T7 phage fusion (most kinases) or DNA tag for qPCR (HEK-293-made kinases); purchased DiscoverX; host or cells: E. coli BL21-derived host (T7 phage) or HEK-293
The procedure: as §1

In test [9] the target is T9, ABL1 (Homo sapiens, UniProt P00519).
T9 construct: T7 phage fusion (most kinases) or DNA tag for qPCR (HEK-293-made kinases); purchased DiscoverX (Fremont, CA); host or cells: E. coli BL21-derived host (T7 phage) or HEK-293
The procedure:
as §1

Test [10] addresses T10, RET (Homo sapiens, UniProt P07949).
T10 construct: T7 phage fusion (most kinases) or DNA tag after HEK-293 expression; purchased DiscoverX (Fremont, CA), ScanEDGE; host or cells: T7 phage in E. coli BL21-derived host, or HEK-293
The procedure:
as §1

Test [11] deals with T11, MAP3K4 (Homo sapiens, UniProt Q9Y6R4).
T11 construct: T7 phage fusion (most kinases) or DNA tag for qPCR (HEK-293-made kinases); purchased DiscoverX; host or cells: E. coli BL21-derived host (T7 phage) or HEK-293
Here is the method: as §1

The target of test [12] is T12, BRSK1 (Homo sapiens, UniProt Q8TDC3).
T12 construct: T7 phage fusion (most kinases) or DNA tag for qPCR (HEK-293-made kinases); purchased DiscoverX (Fremont, CA); host or cells: E. coli BL21-derived host (T7 phage) or HEK-293
The procedure: as §1

For test [13], the target named is T13, LKB1 (Homo sapiens, UniProt Q15831).
T13 construct: T7 phage fusion (most kinases) or DNA tag for qPCR (HEK-293-made kinases); purchased DiscoverX; host or cells: E. coli BL21-derived host (T7 phage) or HEK-293
Here is the method: as §1

Test [14] deals with T14, ACVR1B (Homo sapiens, UniProt P36896).
T14 construct: T7 phage fusion (most kinases) or DNA tag for qPCR (HEK-293-made kinases); purchased DiscoverX (Fremont, CA); host or cells: E. coli BL21-derived host (T7 phage) or HEK-293
The procedure:
as §1

Test [15] deals with T15, HCK (Homo sapiens, UniProt P08631).
T15 construct: T7 phage fusion (most kinases) or DNA tag for qPCR (HEK-293-made kinases); purchased DiscoverX; host or cells: E. coli BL21-derived host (T7 phage) or HEK-293
Here is the method:
as §1

Test [16] deals with T16, AXL (Homo sapiens, UniProt P30530).
T16 construct: T7 phage fusion (most kinases) or DNA tag for qPCR (HEK-293-made kinases); purchased DiscoverX (Fremont, CA); host or cells: E. coli BL21-derived host (T7 phage) or HEK-293
The procedure: as §1

T3 sequence (Q9BXA7 whole entry, the tested form may be a part): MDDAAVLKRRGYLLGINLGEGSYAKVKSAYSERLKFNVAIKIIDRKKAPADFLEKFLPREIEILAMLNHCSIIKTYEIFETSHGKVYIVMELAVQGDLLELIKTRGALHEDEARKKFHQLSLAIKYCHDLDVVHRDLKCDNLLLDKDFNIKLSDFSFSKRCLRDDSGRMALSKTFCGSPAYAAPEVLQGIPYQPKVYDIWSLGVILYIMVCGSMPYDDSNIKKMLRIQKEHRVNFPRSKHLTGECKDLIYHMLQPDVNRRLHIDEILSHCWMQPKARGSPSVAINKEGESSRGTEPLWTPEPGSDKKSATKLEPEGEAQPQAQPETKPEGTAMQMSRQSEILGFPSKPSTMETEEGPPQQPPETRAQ
T9 sequence (P00519 whole entry, the tested form may be a part): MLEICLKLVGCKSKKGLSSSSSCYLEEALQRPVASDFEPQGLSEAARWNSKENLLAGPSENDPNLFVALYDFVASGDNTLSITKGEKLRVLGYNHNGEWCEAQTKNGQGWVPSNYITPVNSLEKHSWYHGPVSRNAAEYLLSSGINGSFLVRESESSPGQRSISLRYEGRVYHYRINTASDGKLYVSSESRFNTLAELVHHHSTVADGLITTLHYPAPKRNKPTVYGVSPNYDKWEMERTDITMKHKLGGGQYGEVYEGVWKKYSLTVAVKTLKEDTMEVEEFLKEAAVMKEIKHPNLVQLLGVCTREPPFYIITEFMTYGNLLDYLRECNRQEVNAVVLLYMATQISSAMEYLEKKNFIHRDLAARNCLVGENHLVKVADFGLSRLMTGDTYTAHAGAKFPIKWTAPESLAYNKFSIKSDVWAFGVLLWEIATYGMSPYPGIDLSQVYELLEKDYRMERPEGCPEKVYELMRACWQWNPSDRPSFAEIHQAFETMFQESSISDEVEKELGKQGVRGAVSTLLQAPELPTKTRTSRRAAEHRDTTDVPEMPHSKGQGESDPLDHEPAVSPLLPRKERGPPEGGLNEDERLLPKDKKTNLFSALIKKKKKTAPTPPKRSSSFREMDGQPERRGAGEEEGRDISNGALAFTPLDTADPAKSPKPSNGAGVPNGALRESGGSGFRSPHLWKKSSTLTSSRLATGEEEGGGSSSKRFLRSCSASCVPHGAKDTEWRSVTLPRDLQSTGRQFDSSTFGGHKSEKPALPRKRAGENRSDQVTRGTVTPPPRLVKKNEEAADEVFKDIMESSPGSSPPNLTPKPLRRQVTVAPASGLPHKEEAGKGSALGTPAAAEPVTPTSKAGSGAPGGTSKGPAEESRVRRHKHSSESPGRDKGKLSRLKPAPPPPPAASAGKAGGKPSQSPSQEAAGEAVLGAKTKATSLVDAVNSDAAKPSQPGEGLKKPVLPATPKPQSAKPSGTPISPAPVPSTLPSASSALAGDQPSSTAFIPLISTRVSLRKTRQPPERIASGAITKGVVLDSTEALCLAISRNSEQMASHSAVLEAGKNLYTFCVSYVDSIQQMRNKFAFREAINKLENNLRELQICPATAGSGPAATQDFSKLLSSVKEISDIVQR
T16 sequence (P30530 26-894): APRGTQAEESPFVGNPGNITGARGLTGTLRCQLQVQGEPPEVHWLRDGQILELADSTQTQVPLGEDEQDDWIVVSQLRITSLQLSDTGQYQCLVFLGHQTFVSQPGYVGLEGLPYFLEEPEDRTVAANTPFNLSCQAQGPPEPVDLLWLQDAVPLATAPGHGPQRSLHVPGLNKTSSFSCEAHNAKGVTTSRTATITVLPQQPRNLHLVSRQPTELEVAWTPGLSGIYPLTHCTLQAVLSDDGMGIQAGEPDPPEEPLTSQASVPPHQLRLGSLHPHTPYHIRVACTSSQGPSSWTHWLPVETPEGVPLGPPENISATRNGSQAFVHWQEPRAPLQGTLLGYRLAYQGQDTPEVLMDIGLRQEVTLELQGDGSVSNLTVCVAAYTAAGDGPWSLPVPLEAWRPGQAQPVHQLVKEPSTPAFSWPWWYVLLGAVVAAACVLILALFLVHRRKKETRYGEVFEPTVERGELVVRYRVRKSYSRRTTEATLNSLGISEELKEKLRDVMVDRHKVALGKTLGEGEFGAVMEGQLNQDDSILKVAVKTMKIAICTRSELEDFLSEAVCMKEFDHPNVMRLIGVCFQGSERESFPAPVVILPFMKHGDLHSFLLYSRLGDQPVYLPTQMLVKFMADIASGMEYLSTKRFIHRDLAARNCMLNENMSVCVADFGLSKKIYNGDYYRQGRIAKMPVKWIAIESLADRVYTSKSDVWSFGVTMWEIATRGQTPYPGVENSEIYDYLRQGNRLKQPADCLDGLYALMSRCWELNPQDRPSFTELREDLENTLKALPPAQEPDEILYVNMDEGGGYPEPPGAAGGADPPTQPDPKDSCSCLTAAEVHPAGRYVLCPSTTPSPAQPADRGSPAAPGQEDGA
T15 sequence (P08631 whole entry, the tested form may be a part): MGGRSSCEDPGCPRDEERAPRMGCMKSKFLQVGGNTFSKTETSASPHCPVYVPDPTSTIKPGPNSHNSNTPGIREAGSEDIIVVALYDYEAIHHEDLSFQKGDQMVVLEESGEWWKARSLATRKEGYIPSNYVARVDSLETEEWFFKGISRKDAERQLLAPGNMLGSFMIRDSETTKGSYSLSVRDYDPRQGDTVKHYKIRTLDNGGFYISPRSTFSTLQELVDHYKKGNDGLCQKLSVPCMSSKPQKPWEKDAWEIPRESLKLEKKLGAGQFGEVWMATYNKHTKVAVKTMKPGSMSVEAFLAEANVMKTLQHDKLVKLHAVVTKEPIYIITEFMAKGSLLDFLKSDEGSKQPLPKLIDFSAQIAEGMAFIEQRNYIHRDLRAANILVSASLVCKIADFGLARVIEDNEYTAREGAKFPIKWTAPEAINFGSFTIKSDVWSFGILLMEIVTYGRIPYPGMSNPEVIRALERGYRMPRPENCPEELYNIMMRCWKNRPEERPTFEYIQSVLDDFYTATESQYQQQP
T10 sequence (P07949 29-1114): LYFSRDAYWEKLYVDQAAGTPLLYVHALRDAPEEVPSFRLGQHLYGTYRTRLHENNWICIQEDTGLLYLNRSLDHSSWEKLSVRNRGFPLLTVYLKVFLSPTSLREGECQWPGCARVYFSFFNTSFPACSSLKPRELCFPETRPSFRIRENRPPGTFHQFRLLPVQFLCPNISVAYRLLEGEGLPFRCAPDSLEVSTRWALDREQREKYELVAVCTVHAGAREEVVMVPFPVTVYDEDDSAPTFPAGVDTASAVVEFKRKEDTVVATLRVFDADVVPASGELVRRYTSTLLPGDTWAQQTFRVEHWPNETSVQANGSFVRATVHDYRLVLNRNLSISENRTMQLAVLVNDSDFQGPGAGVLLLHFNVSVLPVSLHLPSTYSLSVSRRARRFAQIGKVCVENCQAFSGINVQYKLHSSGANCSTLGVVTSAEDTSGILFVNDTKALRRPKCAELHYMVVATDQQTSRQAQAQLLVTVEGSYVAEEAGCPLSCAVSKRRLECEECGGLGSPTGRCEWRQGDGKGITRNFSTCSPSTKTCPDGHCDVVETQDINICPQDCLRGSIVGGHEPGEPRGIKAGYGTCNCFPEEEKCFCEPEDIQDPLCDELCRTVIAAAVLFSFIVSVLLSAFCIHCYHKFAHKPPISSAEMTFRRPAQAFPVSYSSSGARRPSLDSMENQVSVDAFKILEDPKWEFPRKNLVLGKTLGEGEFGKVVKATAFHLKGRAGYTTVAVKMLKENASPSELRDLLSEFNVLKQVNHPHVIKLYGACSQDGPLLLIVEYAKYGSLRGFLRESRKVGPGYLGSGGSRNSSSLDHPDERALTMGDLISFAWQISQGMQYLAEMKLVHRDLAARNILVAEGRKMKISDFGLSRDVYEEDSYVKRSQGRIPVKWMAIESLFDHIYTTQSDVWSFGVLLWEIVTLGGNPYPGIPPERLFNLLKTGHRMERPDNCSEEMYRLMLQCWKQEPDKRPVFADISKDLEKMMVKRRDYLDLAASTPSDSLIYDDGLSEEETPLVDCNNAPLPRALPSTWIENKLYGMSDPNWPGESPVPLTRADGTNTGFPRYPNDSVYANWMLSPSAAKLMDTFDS
T13 sequence (Q15831 whole entry, the tested form may be a part): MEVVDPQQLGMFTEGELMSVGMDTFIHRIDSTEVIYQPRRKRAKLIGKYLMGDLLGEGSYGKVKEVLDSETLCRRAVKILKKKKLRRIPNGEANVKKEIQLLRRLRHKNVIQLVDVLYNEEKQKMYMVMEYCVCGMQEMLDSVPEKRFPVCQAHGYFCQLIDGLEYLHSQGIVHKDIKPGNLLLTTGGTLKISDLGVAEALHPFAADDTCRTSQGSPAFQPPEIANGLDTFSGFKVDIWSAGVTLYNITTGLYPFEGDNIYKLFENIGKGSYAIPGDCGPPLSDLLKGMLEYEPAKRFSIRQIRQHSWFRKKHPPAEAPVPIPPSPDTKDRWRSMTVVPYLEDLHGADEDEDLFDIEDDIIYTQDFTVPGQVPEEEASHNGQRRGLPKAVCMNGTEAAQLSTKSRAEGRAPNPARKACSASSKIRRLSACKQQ
T1 sequence (Q9P1W9 whole entry, the tested form may be a part): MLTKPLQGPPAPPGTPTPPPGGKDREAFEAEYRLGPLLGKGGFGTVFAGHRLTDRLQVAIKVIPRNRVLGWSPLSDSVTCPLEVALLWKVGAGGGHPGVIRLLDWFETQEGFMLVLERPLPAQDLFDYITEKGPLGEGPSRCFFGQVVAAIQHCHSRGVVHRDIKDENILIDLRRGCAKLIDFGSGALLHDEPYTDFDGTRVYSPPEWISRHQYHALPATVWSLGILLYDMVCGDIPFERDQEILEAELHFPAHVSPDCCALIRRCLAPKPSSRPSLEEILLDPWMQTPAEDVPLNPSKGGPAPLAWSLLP

Turning to `COc1ccc(N2C(=O)N(c3c(C)cccc3C)Cc3cnc(Nc4ccc(C5CCN(C)CC5)c(OC)c4)nc32)c(OC)c1` [YKL-05-093], the remaining binding at 0.071 µM in test [1] worked out at 97%; in test [2] it was 70%; in test [3], 83%; in test [4], 8.9%; in test [5], 24%; in test [6], 77%. Also, the remaining binding at 0.071 µM in [7] came out at 26%; in test [8], 84%; in test [9], 0.2%; in test [10] it was 3.6%; in test [11] it was 60%; in [12], 74%. Further, the remaining binding at 0.071 µM in test [13] amounted to 85%; in test [14] it was 50%; in test [15] it was 1.2%; in test [16] it was 68%.
